Laboratory results as given in EP4342890A1, “PLATFORM AND SCAFFOLD FOR FAP TARGETING AGENTS” (Erasmus University Rotterdam Medical Center, priority 2022, dated 2024).

Legend:
FAP [1] = molecular target: T1, FAP (Homo sapiens, UniProt Q12884); test: In vitro inhibition assay on human FAP (Z-GP-AMC substrate); type: biochemical; details: enzymatic assay; 20 µM Z-GP-AMC, 20 nM FAP; unit inferred
T1 sequence (Q12884 1-760): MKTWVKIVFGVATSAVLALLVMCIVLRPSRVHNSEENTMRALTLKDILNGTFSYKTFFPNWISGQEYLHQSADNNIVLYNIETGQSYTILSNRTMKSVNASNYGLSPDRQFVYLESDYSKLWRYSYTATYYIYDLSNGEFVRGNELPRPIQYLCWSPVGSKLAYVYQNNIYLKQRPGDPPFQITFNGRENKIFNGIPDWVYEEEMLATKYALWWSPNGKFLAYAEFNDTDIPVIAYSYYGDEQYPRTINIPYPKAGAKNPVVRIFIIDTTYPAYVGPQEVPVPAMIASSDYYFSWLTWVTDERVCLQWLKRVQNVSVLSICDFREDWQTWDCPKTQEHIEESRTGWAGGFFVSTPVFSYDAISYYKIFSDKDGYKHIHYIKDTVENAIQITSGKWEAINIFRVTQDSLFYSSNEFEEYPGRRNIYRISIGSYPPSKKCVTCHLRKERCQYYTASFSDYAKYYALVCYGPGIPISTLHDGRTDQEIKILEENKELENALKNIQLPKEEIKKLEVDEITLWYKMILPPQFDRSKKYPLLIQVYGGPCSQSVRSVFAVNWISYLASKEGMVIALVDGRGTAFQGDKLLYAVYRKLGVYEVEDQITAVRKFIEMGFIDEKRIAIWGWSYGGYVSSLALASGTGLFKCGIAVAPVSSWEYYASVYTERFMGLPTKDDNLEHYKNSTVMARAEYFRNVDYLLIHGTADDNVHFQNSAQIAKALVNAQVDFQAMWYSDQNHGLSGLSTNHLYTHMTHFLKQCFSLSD
Protocol: (§1) Enzymatic activity of human FAP (hFAP) and mouse FAP (mFAP) on the Z-GP-AMC substrate was measured at room temperature on a Hidex microplate reader by monitoring the fluorescence at an excitation wavelength of 360 nm and an emission wavelength of 465 nm. The reaction mixture contained 20 µM substrate, 20 nM FAP, assay buffer (50 mM Tris, 100 mM NaCl, 1 mM EDTA, pH 7.4) and tested compound (serial dilution from 10^-6 to 10^-12) in a total volume of 50 µL.

murine FAP = molecular target: T2, murine FAP (Mus musculus, UniProt P97321); test: In vitro inhibition assay on mouse FAP (Z-GP-AMC substrate); type: biochemical; details: enzymatic assay; 20 µM Z-GP-AMC, 20 nM FAP; unit inferred
T2 sequence (P97321 1-761): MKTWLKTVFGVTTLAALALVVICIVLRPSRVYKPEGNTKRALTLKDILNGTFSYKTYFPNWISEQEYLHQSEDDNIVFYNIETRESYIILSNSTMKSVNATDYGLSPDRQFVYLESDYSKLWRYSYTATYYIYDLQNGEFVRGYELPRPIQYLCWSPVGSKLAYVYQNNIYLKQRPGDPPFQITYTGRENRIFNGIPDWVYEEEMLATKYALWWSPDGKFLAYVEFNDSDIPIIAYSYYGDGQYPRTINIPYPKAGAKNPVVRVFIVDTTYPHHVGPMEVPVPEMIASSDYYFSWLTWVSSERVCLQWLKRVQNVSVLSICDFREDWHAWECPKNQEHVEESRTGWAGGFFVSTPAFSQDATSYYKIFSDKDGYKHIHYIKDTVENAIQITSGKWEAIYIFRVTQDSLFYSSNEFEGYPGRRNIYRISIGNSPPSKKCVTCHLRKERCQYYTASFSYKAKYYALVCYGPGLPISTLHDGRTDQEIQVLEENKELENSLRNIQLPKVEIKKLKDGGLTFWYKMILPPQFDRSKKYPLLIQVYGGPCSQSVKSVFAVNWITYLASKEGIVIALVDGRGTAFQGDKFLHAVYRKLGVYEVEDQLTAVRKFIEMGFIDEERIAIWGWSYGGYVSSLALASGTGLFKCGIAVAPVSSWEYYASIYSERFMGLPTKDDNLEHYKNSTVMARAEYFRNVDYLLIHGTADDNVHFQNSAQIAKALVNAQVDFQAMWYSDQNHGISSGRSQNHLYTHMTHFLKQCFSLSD
Protocol: as §1

FAP [2] = molecular target: T1, FAP; test: Competitive binding assay against [111In]In-FAPI-46 in HT-1080.hFAP cells; design: expressed in transfected cells; host or cells: HT-1080.hFAP cells; details: competition with [111In]In-FAPI-46 in HT-1080.hFAP cells, 37 °C, 1 h; unit inferred
Protocol: The U-87 MG glioblastoma was cultured at 37 °C and 5% CO2 in Dulbecco's Modified Eagle Medium (DMEM) supplemented with 10 % (v/v) fetal calf serum. HT-1080.hFAP cells were kept in culture in DMEM medium supplemented with fetal bovine serum (10%, FBS) and antibiotic antimycotic (1%, AA) at 37 °C and 5% CO2. For passaging, cells were detached using Trypsin-EDTA 0.05% when reaching 90% confluence and re-seeded at a dilution of 1:4.
Competition binding experiments were conducted by incubation of the [^111In]In-FAPI-46 radioligand with increasing concentrations of eFAP compound in HT-1080.hFAP cells at 37 °C for 1 h. Cells were then washed three times with binding buffer and lysed. The cell-associated radioactivity was measured in a γ-counter. The IC50 values were calculated by fitting the data by non-linear regression using GraphPad Prism.

CN(CCCN1CCN(C(=O)CN2CCN(CC(=O)O)CCN(CC(=O)O)CCN(CC(=O)O)CC2)CC1)c1ccc2nccc(C(=O)NCC(=O)N3CC(F)(F)C[C@H]3C#N)c2c1 [FAPI-46, reference compound]
IC50 (FAP [1]): 2.7 ± 1.7 nM
IC50 (murine FAP): 15 ± 2 nM
IC50 (FAP [2]): 1.6 ± 0.3 nM
